Earlier results on one molecule are cited in patent US20180271919A1, “PROBIOTIC COMPOSITION AT LEAST COMPRISING BIFIDOBACTERIUM BIFIDUM W23 AND CAPABLE OF CONTROLLING INTESTINAL BARRIER FUNCTION” (Winclove Holding B.V., priority 2015, published 2018).

This series has as its system patients with schizophrenia. Particulars: patients with schizophrenia prescribed the drug.

Each structure is given as a SMILES string.

`CN1CCN(C2=Nc3cc(Cl)ccc3Nc3ccccc32)CC1` [clozapine]: the “Rate of metabolic syndrome” value was 52%.
